Test results taken from patent US8420696B2, “Use of low-dose ladostigil for neuroprotection” (priority 2005, dated 2013).

Tests used:
MAO-A = target: T1, MAO-A (Rattus norvegicus, UniProt P21396); experiment: Example 2: MAO-A activity in homogenates of striatum; format: in vivo, rats; details: chronic 1 mg/kg; for MAO-A (%) inhibition: Striatum
T1 construct: from tissue; host or cells: striatum homogenate of dosed Sprague-Dawley rats
T1 sequence (P21396 1-526): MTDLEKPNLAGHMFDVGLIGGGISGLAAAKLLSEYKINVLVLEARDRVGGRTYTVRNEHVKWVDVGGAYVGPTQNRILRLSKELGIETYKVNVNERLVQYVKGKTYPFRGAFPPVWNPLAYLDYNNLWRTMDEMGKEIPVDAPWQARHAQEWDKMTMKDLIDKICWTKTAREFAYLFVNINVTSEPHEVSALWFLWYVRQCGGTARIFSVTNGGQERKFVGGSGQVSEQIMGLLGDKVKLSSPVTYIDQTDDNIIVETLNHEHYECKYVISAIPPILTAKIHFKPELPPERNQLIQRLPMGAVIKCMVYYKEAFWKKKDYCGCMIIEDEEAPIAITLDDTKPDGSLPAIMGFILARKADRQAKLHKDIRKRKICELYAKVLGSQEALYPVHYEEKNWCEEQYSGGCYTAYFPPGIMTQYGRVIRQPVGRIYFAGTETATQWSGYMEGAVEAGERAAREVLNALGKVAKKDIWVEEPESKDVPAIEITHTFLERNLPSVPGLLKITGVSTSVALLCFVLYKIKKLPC
Procedure: The effect of chronic ladostigil treatment on ChE activity in the cortex and hippocampus of rats was determined one week after icv STZ in 12 rats (3 treated with water and 9 with ladostigil). The effect of acute treatment with ladostigil 1 or 17 mg/kg was determined 2 hrs after drug administration. […] The brain was rapidly removed, washed with saline on ice and the cortex, hippocampus and striatum dissected out, quickly weighed and stored at −70° C. until assay. Total ChE activity in the cortex and hippocampus was measured as described in Wang et al., Gender differences in the effect of rivastigmine on brain cholinesterase activity and cognitive function in rats, Neuropharmacology (2000) 39:497-506, using the spectrophotometric method of Ellman et al., A new and rapid colorimetric determination of acetylcholinesterase activity, Biochem. Pharmacol. (1961) 7:88-95 with acetylthiocholine (Sigma Ltd) as a substrate using homogenate of 100 mg tissue in 1 ml phosphate buffer. To determine only butyrylcholinesterase (BuChE) activity the amounts of tissue/ml of buffer were increased 3-fold and butyrylthiocholine (Sigma Ltd) was used as a substrate. MAO A and B activity was measured in homogenates of striatum as described in Weinstock et al., Limited potentiation of blood pressure response to oral tyramine by brain-selective monoamine oxidase A-B inhibitor, TV-3326 in conscious rabbits, Neuropharmacology (2002) 43:999-1005.

[1] = test system: rats injected icv with STZ (spatial memory); experiment: Morris water maze spatial memory after icv STZ; format: in vivo, Sprague-Dawley rats; details: icv STZ + chronic ladostigil 1 mg/kg vs icv STZ only
Procedure: Male Sprague-Dawley rats (63) weighing 320-340 g, aged 4 months, were anesthetized by an intraperitoneal injection of Equithesin 0.3 ml/kg. STZ (0.5 mg) dissolved in 2 μl artificial cerebrospinal fluid (CSF) was injected into each lateral ventricle of 45 rats. The stereotaxic co-ordinates for icv injection were: 0.9 mm posterior, 1.8 mm lateral and 3.8 mm ventral from the bregma level. Control rats (18) received a bilateral injection of 2 μl artificial CSF. STZ-injected rats (25) were given ladostigil (1 mg/kg of the hemitartrate salt/day) orally in a volume of (1 ml/kg) from one week before, until 1 or 8 weeks after icv STZ. The remaining 20 rats received 1 ml/kg water. The rats were housed two per cage with free access to food and water until the behavioral, enzymatic and cytochemical measurements were completed. […]
Group means of 3 measures in the object and place recognition tests, duration of exploration in first and second phases and discrimination index were submitted to one way ANOVA. Mean daily escape latencies for trial 1 and trial 2 in the MWM in each group were analyzed by repeated measures ANOVA for DAY and GROUP followed by Duncan's post hoc test where appropriate. Histological data were analyzed by univariate ANOVA followed by Duncan's post hoc test. […]

Which “MAO-A (%) inhibition” value (MAO-A; 60 min) does the source give for `C#CCN[C@@H]1CCc2ccc(OC(=O)N(C)CC)cc21` [ladostigil, R(+)-6-(N-methyl,N-ethyl-carbamoyloxy)-N′-propargyl-1-aminoindan] here?
Its value is 2.8 ± 2.5%.

What about the “MAO-A (%) inhibition” value (MAO-A; 120 min) of the same molecule?
Its value is 3.8 ± 2.0%.

And the “Effect on striatal MAO-A activity” value (MAO-A)?
The value was “no effect”.

What about the “Escape latency in Morris water maze, trial 1, means over 5 days” value [1] of the same molecule?
Its value is “rats given icv STZ only had significantly higher latencies than those injected with CSF or STZ and treated with ladostigil”.
